Data on 27 compounds can be found in patent publication US8067589B2, “Heterocyclic compounds useful in treating diseases and conditions” (Pfizer Inc, priority 2007, dated 2011).

Structures are written as SMILES.

The experiment deals with human recombinant H-PGDS (Homo sapiens, UniProt O60760). Nature of the experiment: Fluoresecence Intensity h-PGDSTBA Enzyme Assay. Particulars: IC50, 5.0 μM PGH2, 2.5 mM L-Glutathione, 10 min preincubation, 4-parameter fit, highest inhibitor concentration typically 1 μM.
Sequence of human recombinant H-PGDS (O60760 whole entry): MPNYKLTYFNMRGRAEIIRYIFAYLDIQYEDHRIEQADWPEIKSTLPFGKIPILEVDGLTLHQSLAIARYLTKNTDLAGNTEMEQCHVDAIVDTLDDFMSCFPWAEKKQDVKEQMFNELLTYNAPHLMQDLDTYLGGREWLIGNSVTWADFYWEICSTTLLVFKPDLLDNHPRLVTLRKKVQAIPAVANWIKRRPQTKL
Turning to `CC(=O)N1CC[C@@H](NC(=O)c2cnc(-c3cccc(F)c3)nc2)C1` [Example 88, N-[(3R)-1-Acetylpyrrolidin-3-yl]-2-(3-fluorophenyl)pyrimidine-5-carboxamide], the IC50 (commonly the concentration that inhibits the measured activity by half) stood at 1.58 nM.

With `CC(C)N1CCC(NC(=O)c2cnc(-c3cccc(F)c3)nc2)C1` (stereo not drawn) [Example 87, 2-(3-Fluorophenyl)-N-(1-isopropylpyrrolidin-3-yl)pyrimidine-5-carboxamide], the IC50 came to 6.57 nM.

On to `COc1cccc(OC)c1CN1CCC(NC(=O)c2cnc(-c3ccccc3)nc2)CC1` [Example 14, N-[1-(2,6-Dimethoxybenzyl)piperidin-4-yl]-2-phenylpyrimidine-5-carboxamide], for which the IC50 came to 0.483 nM.

As for `CCC(CC)N1CCC(NC(=O)c2cnc(-c3cccc(F)c3)nc2)CC1` [Example 68, N-[1-(1-Ethylpropyl)piperidin-4-yl]-2-(3-fluorophenyl)pyrimidine-5-carboxamide], the IC50 came out at 0.373 nM.

As for `CCOC(=O)N1CCC(NC(=O)c2cnc(-c3cccc(F)c3)nc2)C1` (single isomer, unassigned) [Example 82b, Ethyl 3-(2-(3-fluorophenyl)pyrimidine-5-carboxamido)pyrrolidine-1-carboxylate], the half-maximal inhibitory concentration (IC50) was determined as 0.58 nM.

Consider `CCC(C)N1CCC(NC(=O)c2cnc(-c3cccc(F)c3)nc2)CC1` (stereo not drawn) [Example 69, N-(1-sec-Butylpiperidin-4-yl)-2-(3-fluorophenyl)pyrimidine-5-carboxamide], for which the IC50 turned out to be 3.59 nM.

On to `O=C(N[C@@H]1CN(c2ncccn2)C[C@@H]1O)c1cnc(-c2cccc(F)c2)nc1` (relative stereo) [Example 98, Cis-2-(3-Fluorophenyl)-N-[4-hydroxy-1-pyrimidin-2-ylpyrrolidin-3-yl]pyrimidine-5-carboxamide], for which the IC50 came to 1.82 nM.

As to `Cc1cc(CN2CCC(NC(=O)c3cnc(-c4cccc(F)c4)nc3)C2=O)ccc1F` (stereo not drawn) [Example 86, N-[1-(4-Fluoro-3-methylbenzyl)-2-oxopyrrolidin-3-yl]-2-(3-fluorophenyl)pyrimidine-5-carboxamide], the half-inhibitory concentration (IC50) was determined as 6.43 nM.

For the compound `COC(=O)c1cccc(-c2ncc(C(=O)NC3CCN(CC(F)(F)F)CC3)cn2)c1` [Example 125, Methyl 3-[5-({[1-(2,2,2-trifluoroethyl)piperidin-4-yl]amino}carbonyl)pyrimidin-2-yl]benzoate], the IC50 turned out to be 270 nM.

Turning to `O=C(NC1CCN(C(COc2ccccc2)c2ccccc2)CC1)c1cnc(-c2cccc(F)c2)nc1` (stereo not drawn) [Example 38, 2-(3-Fluorophenyl)-N-[1-(2-phenoxy-1-phenylethyl)piperidin-4-yl]pyrimidine-5-carboxamide], the IC50 was 6.71 nM.

Turning to `O=C(NC1CCN(CC2CCCCC2)CC1)c1cnc(-c2cccc(F)c2)nc1` [Example 52, N-[1-(Cyclohexylmethyl)piperidin-4-yl]-2-(3-fluorophenyl)pyrimidine-5-carboxamide], the IC50 came to 0.457 nM.

As to `Cc1nc(N2CCC(NC(=O)c3cnc(-c4cccc(F)c4)nc3)C2)ncc1S(C)(=O)=O` (stereo not drawn) [Example 80, 2-(3-Fluorophenyl)-N-{1-[4-methyl-5-(methylsulfonyl)pyrimidin-2-yl]pyrrolidin-3-yl}pyrimidine-5-carboxamide], the IC50 came to 0.211 nM.

In the case of `COc1ccccc1OCC(c1ccccc1)N1CCC(NC(=O)c2cnc(-c3cccc(F)c3)nc2)CC1` (stereo not drawn) [Example 54, 2-(3-Fluorophenyl)-N-{1-[2-(2-methoxyphenoxy)-1-phenylethyl]piperidin-4-yl}pyrimidine-5-carboxamide], the IC50 stood at 6.13 nM.

For the compound `CC(C)N1CCC(NC(=O)c2cnc(-c3ccccc3)nc2N)CC1` [Example 16, 4-Amino-N-(1-isopropylpiperidin-4-yl)-2-phenyl-pyrimidine-5-carboxamide], the IC50 came to 219 nM.

With `O=C(NC1CCN(c2ncc3c(n2)CCOC3)C1)c1cnc(-c2cccc(F)c2)nc1` (single isomer, unassigned) [Example 81a, N-(1-(7,8-Dihydro-5H-pyrano[4,3-d]pyrimidin-2-yl)pyrrolidin-3-yl)-2-(3-fluorophenyl)pyrimidine-5-carboxamide], the IC50 is 0.27 nM.

For the compound `Cc1nc(-c2ccccc2)ncc1C(=O)NC1CCN(C(C)C)CC1` [Example 1, N-(1-Isopropylpiperidin-4-yl)-4-methyl-2-phenylpyrimidine-5-carboxamide], the IC50 amounted to 162 nM.

Regarding `CC(C)(C)OC(=O)N1CCC(NC(=O)c2cnc(-c3ccccc3)nc2O)CC1` [Example 20, tert-Butyl 4-{[(4-hydroxy-2-phenyl-pyrimidin-5-yl)carbonyl]amino}piperidine-1-carboxylate], the IC50 is at least 1000 nM.

With `CN1CC[C@@H](NC(=O)c2cnc(-c3cccc(F)c3)nc2)[C@@H](Cc2ccccc2)C1` [Example 72, N-[(3S,4R)-3-Benzyl-1-methylpiperidin-4-yl]-2-(3-fluorophenyl)pyrimidine-5-carboxamide], the IC50 is 30 nM.

`O=C(NC1CCN(Cc2ccc(C(F)(F)F)c(F)c2)CC1)c1cnc(-c2cccc(F)c2)nc1` [Example 37, 2-(3-Fluorophenyl)-N-{1-[3-fluoro-4-(trifluoromethyl)benzyl]piperidin-4-yl}pyrimidine-5-carboxamide]: the IC50 was determined as 7.07 nM.

Take `Nc1nc(-c2ccccc2)ncc1C(=O)NC1CCN(Cc2ccccn2)CC1` [Example 18, 4-Amino-2-phenyl-N-[1-(pyridin-2-ylmethyl)piperidin-4-yl]pyrimidine-5-carboxamide]: the IC50 was determined as 16.4 nM.

`O=C(NC1CCN(Cc2ccc(C(F)(F)F)cc2)CC1)c1cnc(-c2cccc(F)c2)nc1` [Example 67, 2-(3-Fluorophenyl)-N-{1-[4-(trifluoromethyl)benzyl]piperidin-4-yl}pyrimidine-5-carboxamide]: the IC50 came out at 30 nM.

Turning to `O=C(NC1CCN(C(COc2ccc(C(F)(F)F)cc2)c2ccccc2)CC1)c1cnc(-c2cccc(F)c2)nc1` (stereo not drawn) [Example 48, 2-(3-Fluorophenyl)-N-(1-{1-phenyl-2-[4-(trifluoromethyl)phenoxy]ethyl}piperidin-4-yl)pyrimidine-5-carboxamide], the IC50 was found to be 29.6 nM.

With `CCCCOCCCN1CCC(NC(=O)c2cnc(-c3cccc(F)c3)nc2)C1=O` (stereo not drawn) [Example 91, N-[1-(3-Butoxypropyl)-2-oxopyrrolidin-3-yl]-2-(3-fluorophenyl)pyrimidine-5-carboxamide], the half-inhibitory concentration (IC50) was 2.8 nM.

With `COc1cccc(OC)c1CN1CCC(NC(=O)c2cnc(-c3ccccc3)nc2O)CC1` [Example 23, N-[1-(2,6-Dimethoxybenzyl)piperidin-4-yl]-4-hydroxy-2-phenyl-pyrimidine-5-carboxamide], the IC50 was at least 1000 nM.

As for `Cc1ccccc1CN1CCC(NC(=O)c2cnc(-c3cccc(F)c3)nc2)CC1` [Example 62, 2-(3-Fluorophenyl)-N-[1-(2-methylbenzyl)piperidin-4-yl]pyrimidine-5-carboxamide], the IC50 came to 0.489 nM.

`O=C(NC1CCN(Cc2c(F)ccc(F)c2Cl)C1=O)c1cnc(-c2cccc(F)c2)nc1` (stereo not drawn) [Example 85, N-[1-(2-Chloro-3,6-difluorobenzyl)-2-oxopyrrolidin-3-yl]-2-(3-fluorophenyl)pyrimidine-5-carboxamide]: the IC50 is 2.34 nM.

Take `O=C(NC1CCN(Cc2ccccc2)CC1)c1cnc(-c2ccccc2)nc1O` [Example 19, N-(1-Benzylpiperidin-4-yl)-4-hydroxy-2-phenylpyrimidine-5-carboxamide]: the IC50 was at least 1000 nM.
